Reference: PMC11224111, “Optimizing the pharmacokinetics of an ^211At-labeled RGD peptide with an albumin-binding moiety via the administration of an albumin-binding inhibitor” (European Journal of Nuclear Medicine and Molecular Imaging, 2024)
Marks after values point to notes of the source that are not given here.

Assay: Biodistribution of [^211At]1 and [^125I]2 in normal mice with ibuprofen or IPBA as albumin-binding inhibitor
Conditions: 4 h after administration
Description: To evaluate the effects of albumin-binding inhibitors in normal mice, [^211At]1 (37 kBq) and [^125I]2 (37 kBq) were intravenously coadministered. […] The total blood albumin (1.1 µmol) in normal mice was calculated from the albumin concentration (3.0 g/dL ≈ 455 µM) in blood, which was informed from Japan SLC, Inc., total blood volume (2.5 mL) as 8% of body weight, and the molecular weight of albumin as 66,000 g/mol. […]
Table S1. Biodistribution of radioactivity 4 h after administration of [^211At]1 and [^125I]2 in normal mice.

[1] = IPBA 10 eq at 1 h postinjection
[2] = ibuprofen 10 eq at 1 h postinjection

## Ga-DOTA-K([^211At]APBA)-c(RGDfK) [[^211At]1]
IPBA 2 eq at 1 h postinjection
  Radioactivity, Blood: 8.33 (0.29)^ a, b % injected activity per gram
  Radioactivity, Bone: 1.35 (0.06)^ a % injected activity per gram
  Radioactivity, Brain: 0.24 (0.04)^ a % injected activity per gram
  Radioactivity, Heart: 2.90 (0.09) ^a, b % injected activity per gram
  Radioactivity, Kidney: 3.36 (0.20) % injected activity per gram
  Radioactivity, L. intestine: 1.53 (0.39) % injected activity per gram
  Radioactivity, Liver: 1.68 (0.15)^ a % injected activity per gram
  Radioactivity, Lung: 4.96 (0.40)^ a, b % injected activity per gram
  Radioactivity, Muscle: 1.16 (0.09) % injected activity per gram
  Radioactivity, Neck: 0.23 (0.07)^ a % injected activity
  Radioactivity, Pancreas: 1.55 (0.15)^ a, b % injected activity per gram
  Radioactivity, S. intestine: 1.47 (0.05) % injected activity per gram
  Radioactivity, Spleen: 1.54 (0.18) % injected activity per gram
  Radioactivity, Stomach: 1.84 (0.32) % injected activity
IPBA 5 eq at 1 h postinjection
  Radioactivity, Blood: 3.46 (0.33)^ a, b, c % injected activity per gram
  Radioactivity, Bone: 0.95 (0.08)^ a, b % injected activity per gram
  Radioactivity, Brain: 0.16 (0.01)^ a % injected activity per gram
  Radioactivity, Heart: 1.38 (0.13)^ a, b, c % injected activity per gram
  Radioactivity, Kidney: 3.67 (0.10) ^b % injected activity per gram
  Radioactivity, L. intestine: 0.84 (0.22) ^b % injected activity per gram
  Radioactivity, Liver: 1.35 (0.16)^ a, b, c % injected activity per gram
  Radioactivity, Lung: 2.84 (0.27)^ a, b, c % injected activity per gram
  Radioactivity, Muscle: 0.62 (0.04)^ a, b, c % injected activity per gram
  Radioactivity, Neck: 0.08 (0.02)^ a, b % injected activity
  Radioactivity, Pancreas: 1.03 (0.15)^ a, b, c % injected activity per gram
  Radioactivity, S. intestine: 1.35 (0.13) % injected activity per gram
  Radioactivity, Spleen: 1.19 (0.73)^ a % injected activity per gram
  Radioactivity, Stomach: 1.45 (0.45)^ a, b % injected activity
[1]
  Radioactivity, Blood: 1.56 (0.20)^ a, b, c, d % injected activity per gram
  Radioactivity, Bone: 0.98 (0.12)^ a, b, c % injected activity per gram
  Radioactivity, Brain: 0.14 (0.02)^ a % injected activity per gram
  Radioactivity, Heart: 0.78 (0.10)^ a, b, c, d % injected activity per gram
  Radioactivity, Kidney: 3.77 (0.50)^ b % injected activity per gram
  Radioactivity, L. intestine: 0.88 (0.27)^ b % injected activity per gram
  Radioactivity, Liver: 0.80 (0.07)^ a, b, c % injected activity per gram
  Radioactivity, Lung: 1.88 (0.12)^ a, b, c % injected activity per gram
  Radioactivity, Muscle: 0.42 (0.03)^ a, b, c, d % injected activity per gram
  Radioactivity, Neck: 0.03 (0.02)^ b, c, d % injected activity
  Radioactivity, Pancreas: 0.66 (0.17)^ a, b, c, d % injected activity per gram
  Radioactivity, S. intestine: 1.14 (0.08)^ a, b, d % injected activity per gram
  Radioactivity, Spleen: 1.22 (0.17)^ a % injected activity per gram
  Radioactivity, Stomach: 1.30 (0.20)^ d % injected activity
[2]
  Radioactivity, Blood: 10.82 (0.58) ^a % injected activity per gram
  Radioactivity, Bone: 1.57 (0.18)^ a % injected activity per gram
  Radioactivity, Brain: 0.26 (0.03) % injected activity per gram
  Radioactivity, Heart: 3.49 (0.36) % injected activity per gram
  Radioactivity, Kidney: 3.03 (0.24) % injected activity per gram
  Radioactivity, L. intestine: 2.32 (0.57) % injected activity per gram
  Radioactivity, Liver: 1.87 (0.31)^ a % injected activity per gram
  Radioactivity, Lung: 6.44 (1.14) % injected activity per gram
  Radioactivity, Muscle: 1.28 (0.15) % injected activity per gram
  Radioactivity, Neck: 0.18 (0.03)^ a % injected activity
  Radioactivity, Pancreas: 1.85 (0.12) % injected activity per gram
  Radioactivity, S. intestine: 1.58 (0.15) % injected activity per gram
  Radioactivity, Spleen: 1.47 (0.29)^ a % injected activity per gram
  Radioactivity, Stomach: 1.57 (0.21) % injected activity
Vehicle at 1 h postinjection
  Radioactivity, Blood: 14.03 (0.79) % injected activity per gram
  Radioactivity, Bone: 1.88 (0.10) % injected activity per gram
  Radioactivity, Brain: 0.37 (0.11) % injected activity per gram
  Radioactivity, Heart: 3.83 (0.30) % injected activity per gram
  Radioactivity, Kidney: 3.19 (0.20) % injected activity per gram
  Radioactivity, L. intestine: 1.52 (0.35) % injected activity per gram
  Radioactivity, Liver: 2.51 (0.20) % injected activity per gram
  Radioactivity, Lung: 7.69 (0.63) % injected activity per gram
  Radioactivity, Muscle: 1.26 (0.09) % injected activity per gram
  Radioactivity, Neck: 0.05 (0.01) % injected activity
  Radioactivity, Pancreas: 1.88 (0.10) % injected activity per gram
  Radioactivity, S. intestine: 1.85 (0.16) % injected activity per gram
  Radioactivity, Spleen: 2.02 (0.26) % injected activity per gram
  Radioactivity, Stomach: 0.80 (0.10) % injected activity
